Measured values taken from patent US20230107983A1, “COMPOUND ISOLATED FROM TORILIDIS FRUCTUS, AND ANTICANCER PHARMACEUTICAL COMPOSITION CONTAINING SAME AS ACTIVE INGREDIENT” (PHARMA-GENE CO., LTD., priority 2020, published 2023).

Tests used:
[1] = Change in mouse weight, HCT116 xenograft, intraperitoneal administration; type: in vivo, nude mouse; design: Change in mouse weight: unit not given here; conditions: intraperitoneal once a day
Description: (§1) The Tr-9 was dissolved in sterile PBS and 1 mM Tr-9 200 µℓ was intraperitoneally administered per mouse once a day, and all animals were weighed immediately before the start of drug (Tr-9) administration and 9 times in total from day 2 to day 21 after cancer cell transplantation (Table 7).
(§2) In Table 7 above, data values are the mean ± standard deviation. After measuring the body weight, the animals were killed using CO2 gas, and the tumor was separated and the size was measured in 3 directions using a vernier caliper for each animal. Then, the change in tumor size was expressed as a calculated value of (length × width × height)/2 (Table 8).

[2] = test system: human lung cancer cells (A549); assay: Nude mouse xenograft model of human lung cancer cells, intraperitoneal administration; type: in vivo
Description: Anticancer activity against lung cancer according to the intraperitoneal administration of Tr-9 was confirmed through a nude mouse xenograft model of human lung cancer cells (A549). In Example 4, it was carried out using the same animal model and method as the oral administration, except that it was administered intraperitoneally.
(§3) Specific pathogen-free (SPF) nude mice of the BALB/C strain were used as the animal model. Animals were bred in the animal room of Daedeok Campus of Hannam University maintained at a temperature of 23±3° C., relative humidity of 55±15%, ventilation frequency of 10-20 times/hr, lighting time of 12 hours(lights on at 8 am and off at 8 pm) and illuminance of 150 to 300 Lux.
(§4) For cancer cell transplantation, all cells were collected and counted on the last day of culture, and the concentration of human lung cancer cell line A549 was adjusted to 5×10^6 cells/ml using PBS. The adjusted cell culture solution was injected subcutaneously into the auxiliary region between the right scapula and chest wall at 0.2 ml (1×10^6 cells/mouse) per mouse.
(§5) The Tr-9 was dissolved in sterile PBS and 1 mM Tr-9 200 µℓ was intraperitoneally administered per mouse once a day, and all animals were weighed immediately before the start of drug (Tr-9) administration and 10 times in total from day 2 to day 23 after cancer cell transplantation (Table 4).
as §2, with “4” for “7”, “4).” for “8).”
Tumor size increase is (Δt)= Vt—Vo, wherein Vt is the value of measuring the tumor size by date, and Vo is the value of measuring the initial tumor size.

[3] = Change in mouse weight, A549 xenograft, intraperitoneal administration; type: in vivo, nude mouse; design: Change in mouse weight: unit not given here; conditions: once a day
Description: as §5
as §2, with “4” for “7”, “4).” for “8).”

[4] = test system: human colorectal cancer cells (HCT116); assay: Nude mouse xenograft model of human colorectal cancer cells, intraperitoneal administration; type: in vivo
Description: Anticancer activity against colorectal cancer according to the intraperitoneal administration of Tr-9 was confirmed through a nude mouse xenograft model of human colorectal cancer cells (HCT116). In Example 5, Example 4 was repeated except for using colorectal cancer cells.
as §3
as §4, with “colorectal” for “lung”, “HCT116” for “A549”
as §1, §2
Tumor size increase is (Δt)═ Vt—Vo, wherein Vt is the value of measuring the tumor size by date, and Vo is the value of measuring the initial tumor size.

[5] = Change in mouse weight, A549 xenograft, oral administration; type: in vivo, nude mouse; design: Change in mouse weight: unit not given here; conditions: once a day
Description: The Tr-9 was dissolved in sterile PBS and 1 mM Tr-9 200 µℓ was orally administered per mouse once a day, and all animals were weighed immediately before the start of drug (Tr-9) administration and 10 times in total from day 2 to day 23 after cancer cell transplantation (Table 1).
as §2, with “1” for “7”, “2).” for “8).”

[6] = intraperitoneal once a day, Day 0, table title: Change in tumor size
[7] = intraperitoneal once a day, Day 2, table title: Change in tumor size
[8] = intraperitoneal once a day, Day 2, vs control
[9] = intraperitoneal once a day, Day 5, table title: Change in tumor size
[10] = intraperitoneal once a day, Day 5, vs control
[11] = intraperitoneal once a day, Day 7, table title: Change in tumor size
[12] = intraperitoneal once a day, Day 7, vs control
[13] = intraperitoneal once a day, Day 9, table title: Change in tumor size
[14] = intraperitoneal once a day, Day 9, vs control
[15] = intraperitoneal once a day, Day 14, table title: Change in tumor size
[16] = intraperitoneal once a day, Day 14, vs control
[17] = intraperitoneal once a day, Day 16, table title: Change in tumor size
[18] = intraperitoneal once a day, Day 16, vs control
[19] = intraperitoneal once a day, Day 21, table title: Change in tumor size
[20] = intraperitoneal once a day, Day 21, vs control
[21] = intraperitoneal once a day, Day 23
[22] = intraperitoneal once a day, Day 21

- Change in mouse weight ([1]; 0 Day after drug treatment): 100.0 ±0.0
- Change in mouse weight ([1]; 2 Days after drug treatment): 100.5 ±1.8
- Change in mouse weight ([1]; 5 Days after drug treatment): 101.4 ±2.7
- Change in mouse weight ([1]; 7 Days after drug treatment): 98.4 ±2.7
- Change in mouse weight ([1]; 9 Days after drug treatment): 98.4 ±2.8
- Change in mouse weight ([1]; 11 Days after drug treatment): 98.8 ±3.2
- Change in mouse weight ([1]; 14 Days after drug treatment): 98.2 ±4.3
- Change in mouse weight ([1]; 16 Days after drug treatment): 98.6 ±4.9
- Change in mouse weight ([1]; 18 Days after drug treatment): 100.0 ±5.3
- Change in mouse weight ([1]; 21 Days after drug treatment): 101.8 ±7.3
- Change in mouse weight ([3]; 0 Day after drug treatment): 100.0 ±0.0
- Change in mouse weight ([3]; 2 Days after drug treatment): 98.2 ±1.5
- Change in mouse weight ([3]; 5 Days after drug treatment): 98.2 ±1.4
- Change in mouse weight ([3]; 7 Days after drug treatment): 97.6 ±1.0
- Change in mouse weight ([3]; 9 Days after drug treatment): 102.7 ±2.7
- Change in mouse weight ([3]; 12 Days after drug treatment): 101.0 ±3.1
- Change in mouse weight ([3]; 14 Days after drug treatment): 101.2 ±2.6
- Change in mouse weight ([3]; 16 Days after drug treatment): 102.3 ±3.8
- Change in mouse weight ([3]; 19 Days after drug treatment): 103.4 ±5.2
- Change in mouse weight ([3]; 21 Days after drug treatment): 102.9 ±4.1
- Change in mouse weight ([3]; 23 Days after drug treatment): 105.0 ±4.6
- Change in mouse weight ([5]; 0 Day after drug treatment): 100.0 ±0.0
- Change in mouse weight ([5]; 2 Days after drug treatment): 100.0 ±3.0
- Change in mouse weight ([5]; 5 Days after drug treatment): 97.2 ±2.5
- Change in mouse weight ([5]; 7 Days after drug treatment): 99.5 ±3.5
- Change in mouse weight ([5]; 9 Days after drug treatment): 105.7 ±7.0
- Change in mouse weight ([5]; 12 Days after drug treatment): 101.0 ±6.2
- Change in mouse weight ([5]; 14 Days after drug treatment): 101.8 ±5.5
- Change in mouse weight ([5]; 16 Days after drug treatment): 103.9 ±5.8
- Change in mouse weight ([5]; 19 Days after drug treatment): 101.1 ±5.8
- Change in mouse weight ([5]; 21 Days after drug treatment): 102.9 ±6.0
- Change in mouse weight ([5]; 23 Days after drug treatment): 105.0 ±7.1
SMILES: C/C=C(/C)C(=O)O[C@@H]1C[C@H](C)[C@H]2CC(=O)C(C)=C2C[C@@H]1C(C)(C)OC(C)=O [Torilin, torilin, reference compound]
- difference in body weight according to the administration of the drugs ([1]; day 2 to day 21): almost no difference in body weight
- Tumor size increase (Vt−V0) [2, 6]: 0.0±0.0
- Tumor size increase (Vt−V0) [2, 7]: 13.2±13.2
- Inhibition rate (tumor size increase) [2, 8]: 2.9%
- Tumor size increase (Vt−V0) [2, 9]: 19.91±0.4
- Inhibition rate (tumor size increase) [2, 10]: 4.8%
- Tumor size increase (Vt−V0) [2, 11]: 28.9±12.5
- Inhibition rate (tumor size increase) [2, 12]: 14.7%
- Tumor size increase (Vt−V0) [2, 13]: 38.0±8.1
- Inhibition rate (tumor size increase) [2, 14]: 17.0%
- Tumor size increase (Vt−V0) ([2]; intraperitoneal once a day, Day 12, table title: Change in tumor size): 75.1±10.7
- Inhibition rate (tumor size increase) ([2]; intraperitoneal once a day, Day 12, vs control): 14.6%
- Tumor size increase (Vt−V0) [2, 15]: 127.0±25.8
- Inhibition rate (tumor size increase) [2, 16]: 15.6%
- Tumor size increase (Vt−V0) [2, 17]: 210.5±44.8
- Inhibition rate (tumor size increase) [2, 18]: 19.9%
- Tumor size increase (Vt−V0) ([2]; intraperitoneal once a day, Day 19, table title: Change in tumor size): 394.8±93.5
- Inhibition rate (tumor size increase) ([2]; intraperitoneal once a day, Day 19, vs control): 22.9%
- Tumor size increase (Vt−V0) [2, 19]: 525.2±99.1
- Inhibition rate (tumor size increase) [2, 20]: 22.7%
- Tumor weight at Day 23 [2, 21]: 0.97 ± 0.183 g
- Tumor weight reduction rate compared to control group [2, 21]: 28.6%
- Tumor size increase (Vt−V0) ([2]; intraperitoneal once a day, Day 23, table title: Change in tumor size): 695.0±110.6
- Inhibition rate (tumor size increase) ([2]; intraperitoneal once a day, Day 23, vs control): 27.0%
- tumor size compared to the control group ([2]; intraperitoneal, after day 19): statistically significantly smaller
- difference in body weight according to the administration of the drugs ([3]; day 2 to day 23): almost no difference in body weight
- Tumor size increase (Vt−V0) [4, 6]: 0.0±0.0
- Tumor size increase (Vt−V0) [4, 7]: 54.7±16.2
- Inhibition rate (tumor size increase) [4, 8]: 17.4%
- Tumor size increase (Vt−V0) [4, 9]: 151.4±33.3
- Inhibition rate (tumor size increase) [4, 10]: 16.3%
- Tumor size increase (Vt−V0) [4, 11]: 362.7±59.4
- Inhibition rate (tumor size increase) [4, 12]: 18.9%
- Tumor size increase (Vt−V0) [4, 13]: 565.9±142.4
- Inhibition rate (tumor size increase) [4, 14]: 19.1%
- Tumor size increase (Vt−V0) ([4]; intraperitoneal once a day, Day 11, table title: Change in tumor size): 816.9±248.1
- Inhibition rate (tumor size increase) ([4]; intraperitoneal once a day, Day 11, vs control): 20.6%
- Tumor size increase (Vt−V0) [4, 15]: 1086.2±458.4
- Inhibition rate (tumor size increase) [4, 16]: 21.2%
- Tumor size increase (Vt−V0) [4, 17]: 1319.9±614.0
- Inhibition rate (tumor size increase) [4, 18]: 26.5%
- Tumor size increase (Vt−V0) ([4]; intraperitoneal once a day, Day 18, table title: Change in tumor size): 1555.6±640.5
- Inhibition rate (tumor size increase) ([4]; intraperitoneal once a day, Day 18, vs control): 24.0%
- Tumor weight at Day 21 [4, 22]: 2.85 ± 0.834 g
- Tumor weight reduction rate compared to control group [4, 22]: 25.9%
- Tumor size increase (Vt−V0) [4, 19]: 1973.3±821.1
- Inhibition rate (tumor size increase) [4, 20]: 25.2%
- tumor size compared to the control group ([4]; intraperitoneal, after day 14): statistically significantly smaller
- difference in body weight according to the administration of the drugs ([5]; day 2 to day 23): almost no difference in body weight
